Source: patent US8637510B2, “Morpholinothiazoles as alpha 7 positive allosteric modulators” (Janssen Pharmaceutica NV, priority 2009, dated 2014)

Legend:
[1] = biological target: T1, human alpha 7-wt nAChR (Homo sapiens, UniProt P36544); experiment: Ca2+ flux imaging (FDSS) (Protocol B); assay type: cell-based; settings: for Emax: efficacy of 100 μM choline defined as 100% in the absence of a PAM, read-out: a7-PAM-G_[33]_Eff_Curve_FI % Efficacy; for EC50: potentiation of 100 μM choline, compounds 0.01 μM to 30 μM, read-out: a7-PAM-G_[33]_pEC50 pEC50 (converted)
T1 construct: expressed in transfected cells
T1 sequence (P36544 23-502): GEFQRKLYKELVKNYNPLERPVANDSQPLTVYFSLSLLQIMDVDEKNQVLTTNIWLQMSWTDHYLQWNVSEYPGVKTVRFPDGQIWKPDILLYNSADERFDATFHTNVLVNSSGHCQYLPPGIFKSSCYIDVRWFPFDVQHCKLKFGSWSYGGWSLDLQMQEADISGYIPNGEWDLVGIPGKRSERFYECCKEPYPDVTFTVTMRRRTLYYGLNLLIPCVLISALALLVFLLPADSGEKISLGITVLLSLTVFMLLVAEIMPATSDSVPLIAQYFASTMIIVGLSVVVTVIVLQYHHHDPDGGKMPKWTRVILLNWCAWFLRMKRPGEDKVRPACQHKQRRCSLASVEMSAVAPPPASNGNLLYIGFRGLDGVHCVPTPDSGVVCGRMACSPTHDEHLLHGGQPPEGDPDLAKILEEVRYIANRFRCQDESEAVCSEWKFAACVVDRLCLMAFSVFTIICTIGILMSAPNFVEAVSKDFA
Outline: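 PAM activity was measured as FDSS calcium fluorescence in α7-wt nAChR cells loaded with 2 μM Fluo-4AM, with compounds at 0.01–30 μM added alongside or 10 min ahead of sub-maximal 100 μM choline. Peak responses were normalised to choline-only efficacy, and EC50 was taken at half-maximal effect.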

[2] = system: DBA/2 mice; experiment: Auditory evoked potential test in DBA/2 mice; assay type: in vivo, mouse; settings: s.c.; male DBA/2 mice; TC ratio vs baseline, p<0.05
Text: A number of compounds according to the invention have proven active in the auditory evoked potential test. […] The DBA/2 mouse has proven to be a useful model of schizophrenia-like sensory processing deficits. Human studies of nicotine effects on sensory processing predicted the results in the DBA/2 mouse and studies with the selective alpha 7 agonist GTS-21 in DBA/2 mice, predicted the effects in humans. This model of sensory gating ability therefore has high translational relevance.
The vehicle used was 20% hydroxypropyl-β-cyclodextrin (HP-β-CD) in water, acidified slightly with a few drops of tartaric acid. Both drug solution and vehicle were administered s.c. in a volume of 4 ml/kg. […]
The ratio of the P20-N40 amplitude of response to the second (test) stimulus and the first (conditioning) stimulus provides a measure of sensory inhibition; the ratio of the test to the conditioning amplitude (TC ratio) is 0.5 or less for most rodent strains and normal humans. […] The maximum negativity between 20 and 60 ms after the two stimuli was selected as the N40 wave and measured relative to the preceding positivity, the P20 wave. The amplitude from the P20 to the N40 wave was determined for both the conditioning and the test response. […]
All data were analyzed by multivariate analysis of variance with repeated measures. […]

SMILES	Emax [1]	EC50 [1]	lowest active dose [2]
Cc1cc(-c2sc(N3C[C@@H](C)O[C@@H](C)C3)nc2CNC(=O)CC2CC2)cc(C)n1 [Compound 1, N-[[2-[(2R,6S)-2,6-dimethyl-4-morpholinyl]-5-(2,6-dimethyl-4-pyridinyl)-4-thiazolyl]methyl]-cyclopropaneacetamide]	796%	186 nM	0.63 mg/kg
Cc1cc(-c2sc(N3C[C@@H](C)O[C@@H](C)C3)nc2CNC(=O)c2conc2C)cc(C)n1 [Compound 18, N-[[2-[(2R,6S)-2,6-dimethyl-4-morpholinyl]-5-(2,6-dimethyl-4-pyridinyl)-4-thiazolyl]methyl]-3-methyl-4-isoxazolecarboxamide]	815%	380 nM	0.04 mg/kg
